Laboratory results from patent US5250518A, “O-methyl derivatives of azithromycin A” (priority 1990, dated 1993).
≈ marks a conversion by molar mass, not a printed value.

Columns and labels:
ATCC 6538P = test: Antibacterial in vitro activity in comparison with azithromycin (Table 3); assay type: cell-based, Staphilococcus aureus; conditions: Brain hearth Bouillon, 24-48 hours, 37° C., inoculum 10^-5 -10^-6 cfu/mL; read-out: MIC
Excerpt: (§1) In Table 3 there are represented in vitro tests of 6-O-methyl- (Ii), 6,11-di-O-methyl- (Ij), 11-O-methyl- (Ik) and 6,11,4"-tri-O-methyl-azithromycin A (II) in comparison with azithromycin.

ATCC 10240 = test: as above; assay type: cell-based; conditions: Brain hearth Bouillon, 24-48 hours, 37° C., inoculum 10^-5 -10^-6 cfu/mL
Excerpt: as §1

ATCC 8043 = test: as above; assay type: cell-based; conditions: Staphylococcus faecalis, ATCC8043; Brain hearth Bouillon, 24-48 hours, 37° C., inoculum 10^-5 -10^-6 cfu/mL
Excerpt: as §1

[1] = system: Bacillus cereus NCTC 10320; test: as above; assay type: cell-based; conditions: NCTC10320, Brain hearth Bouillon, 24-48 hours, 37° C., inoculum 10^-5 -10^-6 cfu/mL
Excerpt: as §1

[2] = system: Bacillus pumilus NCTC 8241; test: as above; assay type: cell-based; conditions: NCTC8241, Brain hearth Bouillon, 24-48 hours, 37° C., inoculum 10^-5 -10^-6 cfu/mL
Excerpt: as §1

[3] = system: Bacillus subtilis NCTC 8241; test: as above; assay type: cell-based; conditions: Bacillus subtilis, NCTC8241; Brain hearth Bouillon, 24-48 hours, 37° C., inoculum 10^-5 -10^-6 cfu/mL
Excerpt: as §1

[4] = system: Corynebacterium xerosis NCTC 9755; test: as above; assay type: cell-based; conditions: NCTC9755, Brain hearth Bouillon, 24-48 hours, 37° C., inoculum 10^-5 -10^-6 cfu/mL
Excerpt: as §1

[5] = system: Escherichia coli ATCC 10536; test: as above; assay type: cell-based; conditions: ATCC10536, Brain hearth Bouillon, 24-48 hours, 37° C., inoculum 10^-5 -10^-6 cfu/mL
Excerpt: as §1

[6] = system: Pseudomonas aeruginosa NCTC 10490; test: as above; assay type: cell-based; conditions: NCTC10490, Brain hearth Bouillon, 24-48 hours, 37° C., inoculum 10^-5 -10^-6 cfu/mL
Excerpt: as §1

Sarcina lutea ATCC 9341 = test: as above; assay type: cell-based; conditions: Micrococcus luteus, ATCC9341; Brain hearth Bouillon, 24-48 hours, 37° C., inoculum 10^-5 -10^-6 cfu/mL
Excerpt: as §1

[7] = system: Staphylococcus epidermidis ATCC 12228; test: as above; assay type: cell-based; conditions: ATCC12228, Brain hearth Bouillon, 24-48 hours, 37° C., inoculum 10^-5 -10^-6 cfu/mL
Excerpt: as §1

[8] = system: standard bacterial strains; test: In vitro activity on the series of standard bacterial strains (Table 3, summary); assay type: cell-based; conditions: versus azithromycin
Experimental: In Table 3 there are represented in vitro tests of 6-O-methyl- (Ii), 6,11-di-O-methyl- (Ij), 11-O-methyl- (Ik) and 6,11,4"-tri-O-methyl-azithromycin A (II) in comparison with azithromycin. […] Namely, the majority of the investigated bacterial strains was 2 to 4 times more sensitive in comparison with the parent antibiotic.
Substrate: Brain hearth Bouillon
Incubation: 24-48 hours, 37° C.
Inocculum; 10^-5 -10^-6 cfu/mL

CC[C@H]1OC(=O)[C@H](C)[C@@H](O[C@H]2C[C@@](C)(OC)[C@@H](O)[C@H](C)O2)[C@H](C)[C@@H](O[C@@H]2O[C@H](C)C[C@H](N(C)C)[C@H]2O)[C@](C)(O)C[C@@H](C)CN(C)[C@H](C)[C@@H](OC)[C@]1(C)O [Ik, 11-O-Methyl-azithromycin A]
MIC (ATCC 6538P): 0.2 µg/mL (≈ 0.262 µM) | MIC (ATCC 10240): 0.1 µg/mL (≈ 0.131 µM) | MIC (ATCC 8043): 0.05 µg/mL (≈ 0.0655 µM) | MIC [1]: 0.1 µg/mL (≈ 0.131 µM) | MIC [2]: 0.05 µg/mL (≈ 0.0655 µM) | MIC [3]: 0.1 µg/mL (≈ 0.131 µM) | MIC [4]: 1.56 µg/mL (≈ 2.04 µM) | MIC [5]: 0.78 µg/mL (≈ 1.02 µM) | MIC [6]: 25 µg/mL (≈ 32.8 µM) | MIC (Sarcina lutea ATCC 9341): 0.0125 µg/mL (≈ 0.0164 µM) | MIC [7]: 0.1 µg/mL (≈ 0.131 µM) | activity in comparison with azithromycin, in words [8]: significantly higher activity
